“Also recorded” adds a separate entry of the source.
How the values were obtained:
MMP-2 = target: T1, MMP-2 (Homo sapiens, UniProt P08253); assay: MMP-2 inhibition assay (Enzo kit, OmniMMP RED fluorogenic substrate); format: biochemical
T1 construct: purchased Enzo Life Sciences (MMP-2 drug discovery kit)
Procedure: The MMP-2 inhibition assay was performed using the Enzo Life Sciences MMP-2 drug discovery kit. and the quenched fluorogenic substrate OmniMMP RED. Reference substrate was diluted to a final concentration of 5 μM, while the MMP-2 enzyme was diluted to 58 mU/µL, and the N-Isobutyl-N-(4-methoxyphenylsulfonyl)glycyl hydroxamic acid (NNGH) inhibitor was diluted to a concentration of 1/200 in assay buffer. […] The assay was performed using a black 96-well microplate. Fluorescence was measured at excitation/emission wavelengths of 545/576 nm, with a cutoff at 570 nm using Gen5 microplate reader (BioTeK, Shoreline, WA). Baseline fluorescence was recorded before adding NNGH inhibitor which was used as a positive control for MMP-2 inhibition. Reaction mixtures in the plate were incubated at 37 °C for 10 min, and fluorescence was measured at 10 min intervals for the first 30 min, then at 30 min intervals until 2 h had elapsed. […] Statistical analysis was performed using ANOVA with GraphPad Prism software, version 10.0.3.

GBM cells = settings: read-out: IC50, inhibition of migration of GBM cells; cited from earlier work
From the text: Ctx (Fig 2) is a 36-residue polypeptide from the scorpion Leiurus quinquestriatus. Ctx contains 8 cysteinyl residues, forming 4 disulfide bridges which help to stabilize its three-dimensional structure. […] However, conflicting data on the effects of Ctx on the glioma-specific chloride channel makes it difficu ...

T1 sequence (P08253 110-465 limits assumed): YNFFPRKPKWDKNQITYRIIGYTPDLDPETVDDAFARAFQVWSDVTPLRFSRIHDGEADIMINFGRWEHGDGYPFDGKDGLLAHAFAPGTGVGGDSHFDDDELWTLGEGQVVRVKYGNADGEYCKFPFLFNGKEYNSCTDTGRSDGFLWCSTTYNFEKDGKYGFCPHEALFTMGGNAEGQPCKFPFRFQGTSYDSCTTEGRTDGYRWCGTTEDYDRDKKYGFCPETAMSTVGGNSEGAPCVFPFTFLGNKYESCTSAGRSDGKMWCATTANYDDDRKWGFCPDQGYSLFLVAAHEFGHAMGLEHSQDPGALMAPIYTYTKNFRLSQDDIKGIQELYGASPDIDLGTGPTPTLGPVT

Substance: Chlorotoxin [Ctx]
- MMP-2 enzymatic activity, percent of control (MMP-2; Ctx 1 µM, replicate 1): 118.933
- MMP-2 enzymatic activity, percent of control (MMP-2; Ctx 1 µM, replicate 2): 112.076
- MMP-2 enzymatic activity, percent of control (MMP-2; Ctx 1 µM, replicate 3): 102.494
- MMP-2 enzymatic activity, percent of control (MMP-2; Ctx 1 µM, replicate 4): 91.6233
- MMP-2 enzymatic activity, percent of control (MMP-2; Ctx 1 µM, replicate 5): 88.1016
- MMP-2 enzymatic activity, percent of control (MMP-2; Ctx 1 µM, replicate 6): 107.77
- MMP-2 enzymatic activity, percent of control (MMP-2; Ctx 1 µM, replicate 7): 112.009
- MMP-2 enzymatic activity, percent of control (MMP-2; Ctx 1 µM, replicate 8): 115.93
- MMP-2 enzymatic activity, percent of control (MMP-2; Ctx 5 µM, replicate 1): 109.471
- MMP-2 enzymatic activity, percent of control (MMP-2; Ctx 5 µM, replicate 2): 117.657
- MMP-2 enzymatic activity, percent of control (MMP-2; Ctx 5 µM, replicate 3): 107.159
- MMP-2 enzymatic activity, percent of control (MMP-2; Ctx 5 µM, replicate 4): 113.75
- MMP-2 enzymatic activity, percent of control (MMP-2; Ctx 5 µM, replicate 5): 100.089
- MMP-2 enzymatic activity, percent of control (MMP-2; Ctx 5 µM, replicate 6): 108.86
- MMP-2 enzymatic activity, percent of control (MMP-2; Ctx 5 µM, replicate 7): 121.511
- MMP-2 enzymatic activity, percent of control (MMP-2; Ctx 5 µM, replicate 8): 108.966
- MMP-2 enzymatic activity, percent of control (MMP-2; Ctx 10 µM, replicate 1): 86.2677
- MMP-2 enzymatic activity, percent of control (MMP-2; Ctx 10 µM, replicate 2): 99.1052
- MMP-2 enzymatic activity, percent of control (MMP-2; Ctx 10 µM, replicate 3): 97.4706
- MMP-2 enzymatic activity, percent of control (MMP-2; Ctx 10 µM, replicate 4): 94.5071
- MMP-2 enzymatic activity, percent of control (MMP-2; Ctx 10 µM, replicate 5): 60.0877
- MMP-2 enzymatic activity, percent of control (MMP-2; Ctx 10 µM, replicate 6): 92.3409
- MMP-2 enzymatic activity, percent of control (MMP-2; Ctx 10 µM, replicate 7): 113.684
- MMP-2 enzymatic activity, percent of control (MMP-2; Ctx 10 µM, replicate 8): 106.8
- MMP-2 enzymatic activity, percent of control (MMP-2; Ctx 15 µM, replicate 1): 86.879
- MMP-2 enzymatic activity, percent of control (MMP-2; Ctx 15 µM, replicate 2): 110.627
- MMP-2 enzymatic activity, percent of control (MMP-2; Ctx 15 µM, replicate 3): 103.344
- MMP-2 enzymatic activity, percent of control (MMP-2; Ctx 15 µM, replicate 4): 104.062
- MMP-2 enzymatic activity, percent of control (MMP-2; Ctx 15 µM, replicate 5): 43.5824
- MMP-2 enzymatic activity, percent of control (MMP-2; Ctx 15 µM, replicate 6): 117.856
- MMP-2 enzymatic activity, percent of control (MMP-2; Ctx 15 µM, replicate 7): 126.92
- MMP-2 enzymatic activity, percent of control (MMP-2; Ctx 15 µM, replicate 8): 120.528
- MMP-2 enzymatic activity, percent of control (MMP-2; Ctx 20 µM, replicate 1): 134.561
- MMP-2 enzymatic activity, percent of control (MMP-2; Ctx 20 µM, replicate 2): 108.926
- MMP-2 enzymatic activity, percent of control (MMP-2; Ctx 20 µM, replicate 3): 139.252
- MMP-2 enzymatic activity, percent of control (MMP-2; Ctx 20 µM, replicate 4): 98.6135
- MMP-2 enzymatic activity, percent of control (MMP-2; Ctx 20 µM, replicate 5): 53.8949
- MMP-2 enzymatic activity, percent of control (MMP-2; Ctx 20 µM, replicate 6): 135.226
- MMP-2 enzymatic activity, percent of control (MMP-2; Ctx 20 µM, replicate 7): 133.352
- MMP-2 enzymatic activity, percent of control (MMP-2; Ctx 20 µM, replicate 8): 121.591
- inhibition of MMP-2 enzymatic activity (Fig 10A) (MMP-2; Ctx at 1, 5, 10, 15 and 20 µM, compared to control inhibitor): did not inhibit; also recorded: not statistically significant
- inhibition of MMP-2 enzymatic activity (Fig 10B) (MMP-2; peptides at 1 µM, 50 µM and 100 µM, one-way ANOVA vs control): not statistically significant
- IC50 (GBM cells): 184 nM

— paper PMC13065040 (PLOS One, 2026)
